Assays:
[1] = MTT cell viability assay, adriamycin-induced apoptosis; assay type: cell-based; details: dog, MDCK cells, of untreated cells, read-out: cell viability, adriamycin alone
Excerpt: (§1) a. HGF/SF and instant compounds have significant anti-apoptotic activity in cultured cell lines.
(§2) Using the MTT cell viability assay we tested the ability of compounds of the invention to protect cells from adriamycin-induced apoptosis. […] Adriamycin alone decreased cell viability to 56% of untreated cells.

[2] = tested on: HUVECs; assay: Nitric oxide production in HUVECs, DAF 2-DA fluorescence; assay type: cell-based, human; details: 24 hours
Protocol: c. […] HUVECs are incubated with either vehicle, HGF/SF, instant compounds, or SNAP for 24 hours, loaded with the nitric oxide-sensitive fluorescence indicator DAF 2-DA and imaged under a laser scanning confocal microscope.
HGF and compounds of the invention may exert their anti-apoptotic effects in part through stimulation of nitric oxide production. We incubated HUVECs with either HGF or instant compounds and measured NO production using the nitric oxide-sensitive fluorescence indicator DAF 2-DA. […] Without wishing to be bound to any particular theory, we propose that the anti-apoptotic activities of both HGF and compounds of the invention may be mediated by nitric oxide production.

[3] = tested on: NIH-3T3 cells transfected with c-met receptor; assay: Protection against adriamycin-induced apoptosis, c-met transfected NIH-3T3 cells, MTT assay; assay type: cell-based; details: pre-treated 48 hr with HGF (50 ng/ml) or compound (12 mg/ml), adriamycin (15 mM) 2 hr
Protocol: b. Protection from apoptosis in NIH-3T3 cells transfected with c-met receptor.
NIH3T3 cells were pre-treated with HGF (50 ng/ml) or compound (12 mg/ml) for 48 hr. Cells were then exposed to adriamycin (ADR) (15 mM) for 2 hr, and post-incubated for 48 hr before performing the MTT assay. […] There was no protection from apoptosis by either compound in non-transfected cells lacking the c-met receptor.

[4] = tested on: isolated aortic rings; assay: Aortic ring assay; assay type: cell-based, Sprague Dawley rats; details: instant compound or HGF (100 ng/ml), day 5
Excerpt: a. Aortic ring assay. Thoracic artery rings from rats are embedded in Matrigel and grown for 5 days in the presence or absence of HGF/SF or compounds of the invention. Treatment with compounds of the invention causes an increased outgrowth from the rings similar to that seen with HGF/SF.
Thoracic aortas from 100 gm Sprague Dawley rats are isolated under sterile conditions and cut into rings of approximately 0.8 to 1.0 mm in length. The rings are embedded in Matrigel in the bottom of 48 well culture plates and instant compound […] or HGF (100 ng/ml, as positive control) was added in […] of serum-free tissue culture medium (Human endothelial-SFM basal growth medium plus 1% bovine serum albumin). An inventive compound or HGF was replenished on day 4; on day 5, the rings were photographed and examined for outgrowths. […] Without wishing to be bound to any particular theory, we propose that inventive compounds are capable of activating proliferation of cells required for angiogenesis.

[5] = tested on: MDCK cells; assay: MTT cell viability assay, adriamycin-induced apoptosis; assay type: cell-based
Excerpt: as §1, §2

[6] = tested on: C57BL/6 mice; details: earlier studies with HGF; cited from earlier work
[7] = tested on: human hepatic stellate cell line LX2; assay: Antifibrotic activity: collagen I mRNA in LX2 cells, real time PCR; assay type: cell-based; details: serum starved LX2 cells, 24 hours; HGF 100 ng/ml, compounds 12 to 24 ug/ml
Protocol: a. Antifibrotic Activity in Hepatic Stellate Cells. Serum starved (activated) LX2 cells (an immortalized human hepatic stellate cell line) that are treated with HGF/SF or a compound of the invention show a decrease in collagen I mRNA expression, as well as expression of other fibrotic marker genes, related to significant antifibrotic activity.
The antifibrotic effects of HGF and compounds of the invention in the immortalized human hepatic stellate cell line LX2 are determined. Serum starved LX2 cells are treated for 24 hours with HGF at 100 ng/ml and compounds of the invention at doses ranging from 12 to 24 ug/ml. RNA is then isolated and real time PCR was performed to evaluate changes in collagen I mRNA. […] Additional experiments to determine the effects of HGF and compounds on TGFb-1, bPDGF-R and MMP-1 mRNA are also performed to more completely characterize activities of these compounds which can contribute to their antifibrotic effects.

| Molecule | viability [1] | nitric oxide production (DAF 2-DA fluorescence) [2] | protection from adriamycin-induced apoptosis (MTT) [3] | endothelial cell outgrowth from aortic rings [4] | cell viability after pretreatment, then adriamycin ([5]; adriamycin-induced apoptosis) | cell viability, compound or HGF alone ([5]; without adriamycin) | vessel area [6] | nitric oxide production (DAF 2-DA fluorescence) ([2]; listed as HGF/SF) | decrease in collagen I mRNA expression [7] |
| --- | --- | --- | --- | --- | --- | --- | --- | --- | --- |
| COc1cccc2c1C(=O)c1c(O)c3c(c(O)c1C2=O)C[C@@](O)(C(=O)CO)C[C@@H]3O[C@H]1C[C@H](N)[C@H](O)[C@H](C)O1 [Adriamycin, reference compound] | 56% | – | – | – | – | – | – | – | – |
| CC(=O)N[C@@H](C(=O)O)C(C)(C)SN=O (racemic) [SNAP, reference compound] | – | significant increase in fluorescence | – | – | – | – | – | – | – |
| HGF: pleiotropic growth factor that stimulates cell growth, cell motility, morphogenesis and angiogenesis | – | stimulate nitric oxide production | protect the cells from adriamycin-induced apoptosis | stimulated equivalent endothelial cell outgrowth | 94% | no effect on cell viability | dose-dependently increases the vessel area | significant increase in fluorescence | 70% |

Source: US8580834B2, “Small molecule modulators of hepatocyte growth factor (scatter factor) activity” (Angion Biomedica Corp., priority 2002, dated 2013)
